From patent publication US20120316122A1, “PHARMACEUTICAL COMPOSITIONS FOR COMBATING THROMBOTIC DISEASES AND THEIR PREPARATION AND USES” (INSTITUTE OF RADIATION MEDICINE, ACADEMY OF MILITARY …, priority 2009, published 2012)
Entries after “also recorded” stand apart in the source; their conditions may differ.

Key:
[1] = system: caudal vein bleeding; assay: Caudal vein bleeding time in mice; conditions: 40 mg/Kg gastric twice per day 5 days, test 1 h after dose on 6th day
Procedure: Mice were randomly divided into 7 groups: control group, aspirin group (ASP,40 mg/Kg), BII group (40 mg/Kg), AIII group (40 mg/Kg), 1:1 group (weight ratio of AIII to BII, 40 mg/Kg), 1:3 group (weight ratio of AIII to BII, 40 mg/Kg), 3:1 group (weight ratio of AIII to BII, 40 mg/Kg). Continuous gastric administration was performed for 5 days, twice per day, and the experiments were conducted after 1 h of the administration on the 6th day. The control group was administered with physiological saline of the same volume. All drug ratios were AIII to BII.
Mice were anesthetized with pentobarbital sodium (40-60 mg/kg), placed on a worm and comfortable pad, a tail tip was cut at a place where the tail of mice had to a diameter of 2.25-2.5 mm, and immediately placed in PBS (37° C.), timing started. Hemostatic time and re-bleeding time within 10 min were observed, and the bleeding volume of mice was presumed by hemoglobin volume.

[2] = system: blood vessels; assay: In vitro activity screening: expanding blood vessels
[3] = system: platelet aggregation; assay: In vitro activity screening: platelet aggregation; assay type: cell-based
[4] = system: artery-vein bypass thrombosis; assay: Artery-vein bypass thrombosis (Example 1); assay type: in vivo, Wistar rats; conditions: 40 mg/Kg gastric once per day 7 days; bypass 15 min
Procedure: The pipe was taken down after 15 min, thrombus was taken out, rolled on a wet filter paper, residual blood was removed, placed on a parchment paper and weighed to obtained its wet weight. Then, it was placed in a drying oven and dried at 60° C. for 1 h to reach a constant weight, cooled and weighed to obtain the dry weight of thrombus.

[5] = system: platelet aggregation induced by ADP; assay: ADP-induced maximum platelet aggregation rate after gastric administration (Example 1); assay type: in vivo, Wistar rats; conditions: 40 mg/Kg gastric once per day 7 days; blood 1 h after last dose; ADP 20 μM
Procedure: Wistar rats, after 1 h of administration on the 7th day, were anesthetized by intraperitoneal injection of pentobarbital sodium (40-60 mg/kg), blood samples were collected from hearts, anti-coagulated with 3.8% sodium citrate (volume ratio: 1:9). Centrifugation was performed under 800 rpm and room temperature for 10 min to separate platelet-rich plasmas (PRP), then centrifugation was performed again under 3000 rpm and room temperature for 20 min to separate platelet-poor plasmas (PPP). Counting was performed by using F-820 blood cell counter, and PRP was adjusted with PPP to have a concentration of 3.0×10^11/L.
Chronolog platelet aggregation analyzer test: Platelet suspension was adjusted with plasma to have a concentration of 3.0×10^11/L, the platelet to aggregation analyzer was turned on and pre-warmed for 30 min, and PPP was used as a blank control to adjust transmittance to be 100%. 450 μL of platelet suspension were taken, stirred with a stir bar and pre-warmed at 37° C. for 3 min, and separately added with inducing agent (50 μL) ADP agent (final concentration: 20 μM), then 5 min diagram was recorded, and aggregation rates at 1 min, 3 min and 5 min and the maximum aggregation rates were read.
Blood samples were collected from heart of anaesthetized mice after 1 h of the last gastric administration of timosaponins, and analyzed to determine the rates of platelet aggregation induced by ADP (20 μM) after administration.

[6] = system: rats with cerebral ischemia; conditions: rat, in vivo; cited from earlier work
[7] = system: blood coagulation; conditions: single compounds; cited from earlier work
[8] = system: human platelet aggregation; conditions: single compounds; cited from earlier work
[9] = system: jugular artery-vein bypass thrombosis; assay: Artery-vein bypass thrombosis in rats (Example 3); assay type: in vivo, Wistar rats; conditions: aspirin 40 mg/kg gastric once per day 7 days; bypass 20 min
Procedure: Then, it was placed in a drying oven and dried at 60° C. for 1 h to reach a constant weight, cooled and weighed to obtain the dry weight of thrombus. […] The aspirin positive control group gave thrombus dry and wet weights slightly higher than those of the large dose group, and had significant difference from the control group.

[10] = system: blood coagulation; assay: Blood coagulation parameters APTT, PT and TT in rats; assay type: in vivo, Wistar rats; conditions: aspirin group (40 mg/kg) gastric once per day 7 days
Procedure: Wistar rats were randomly divided into 5 groups, i.e., blank control group, aspirin 40 mg/kg group, the present pharmaceutical composition 10 mg/kg, 20 mg/kg and 40 mg/kg groups, the animals of the groups were subjected to continuous gastric administration for 7 days, once per day, dose volume was 10 mL/kg, operation was conducted after 1 h of administration on the 7th day, and the blank control was administered with distilled water of the same volume.
Blood samples were collected, plasmas were separated, and the operation was conducted according to the specification of kits.
The administration method of the present pharmaceutical composition and the grouping method were identical to that of the third part, blood samples were collected from hearts of rats on the 7th day after administration, and the ADP-induced platelet aggregation and bleeding/coagulation time (PT, TT and APTT) of the same batch were determined. […] The aspirin group gave a platelet aggregation rate lower than that of the control group, to but had no significant difference.

[11] = system: ADP-induced platelet aggregation; assay: ADP-induced platelet aggregation rate in rats after gastric administration (Example 3); assay type: in vivo, Wistar rats; conditions: aspirin 40 mg/kg gastric once per day 7 days; ADP 20 μM; in %
Procedure: Wistar rats were randomly divided into 5 groups, i.e., blank control group, aspirin 40 mg/kg group, the present pharmaceutical composition 10 mg/kg, 20 mg/kg and 40 mg/kg groups, the animals of the groups were subjected to continuous gastric administration for 7 days, once per day, dose volume was 10 mL/kg, operation was conducted after 1 h of administration on the 7th day, and the blank control was administered with distilled water of the same volume. […]
Chronolog platelet aggregation analyzer test: Platelet suspension was adjusted with plasma to have a concentration of 3.0×10^11/L, the platelet aggregation analyzer was turned on, and PPP was used as a blank control to adjust transmittance to be 100%. 450 μL of platelet suspension were taken, stirred with a stir bar and pre-warmed at 37° C. for 3 min, and separately added with inducing agent (50 μL) ADP agent (final concentration: 20 μM), then 5 min diagram was recorded, and aggregation rates at 1 min, 3 min and 5 min and the maximum aggregation rates were read.
The administration method of the present pharmaceutical composition and the grouping method were identical to that of the third part, blood samples were collected from hearts of rats on the 7th day after administration, and the ADP-induced platelet aggregation and bleeding/coagulation time (PT, TT and APTT) of the same batch were determined. […]

[12] = system: thrombotic agent consisting of collagen and adrenalin; assay: Lethal time in mice by caudal vein injection of collagen; assay type: in vivo, Kunming mice; conditions: 40 mg/Kg gastric twice per day 5 days, test 1 h after dose on 6th day; observed within 10 min
Procedure: Mice were fixed on mice-fixed frame, and thrombotic agent (100 μg/mouse) consisting of collagen (0.5 mg/kg) and adrenalin (60 ug/kg) were administered by caudal vein injection. The symptoms, symptom occurrence time, and the lethal time in mice were observed within 10 min, and mice […] after 10 min were deemed as survival.

C[C@@H](CC[C@@]1(O)O[C@H]2C[C@H]3[C@@H]4CC[C@@H]5C[C@@H](O[C@@H]6O[C@H](CO)[C@H](O)[C@H](O)[C@H]6O[C@@H]6O[C@H](CO)[C@@H](O)[C@H](O)[C@H]6O)CC[C@]5(C)[C@H]4CC[C@]3(C)[C@H]2[C@@H]1C)CO[C@@H]1O[C@H](CO)[C@@H](O)[C@H](O)[C@H]1O [BII, timosaponin BII]
Bleeding volume [1]: 10.7 ± 9.8 µL | Hemostatic time (s) ([1]; cut-off 600 s): 325.1 ± 200.6^★★★ s | expanding blood vessels [2]: could expand blood vessels; also recorded: significant effect of expanding blood vessels | inhibition of platelet aggregation in vitro [3]: could not inhibit | Thrombus dry weight [4]: 28.6 ± 7.82 mg | Thrombus wet weight [4]: 90.39 ± 29.59 mg | Maximum aggregation rate (%) [5]: 50.8 ± 6.7% | blood rheology [6]: significantly improve | cerebral edema [6]: alleviate | cerebral infarction area [6]: reduce | nervous symptoms of rats with cerebral ischemia [6]: significantly improve | extending blood coagulation time [7]: significant activity | activity against human platelet aggregation [8]: significant activity

timosaponins Ia
extending blood coagulation time [7]: significant activity | activity against human platelet aggregation [8]: significant activity

C[C@H]1CC[C@@]2(OC1)O[C@H]1C[C@H]3[C@@H]4CC[C@@H]5C[C@@H](O[C@@H]6O[C@H](CO)[C@H](O)[C@H](O)[C@H]6O[C@@H]6O[C@H](CO)[C@@H](O)[C@H](O)[C@H]6O)CC[C@]5(C)[C@H]4CC[C@]3(C)[C@H]1[C@@H]2C [AIII, timosaponin AIII]
Bleeding volume [1]: 21.3 ± 29.6 µL | Hemostatic time (s) ([1]; cut-off 600 s): 396.6 ± 208.9^★★★ s | inhibition of platelet aggregation in vitro [3]: significantly inhibit; also recorded: significant inhibitive effect | Thrombus dry weight [4]: 24.4 ± 6.30 mg | Thrombus wet weight [4]: 64.29 ± 22.58 mg | Maximum aggregation rate (%) [5]: 39.8 ± 5.0 % | extending blood coagulation time [7]: significant activity | activity against human platelet aggregation [8]: significant activity

CO[C@]1(CC[C@H](C)CO[C@@H]2O[C@H](CO)[C@@H](O)[C@H](O)[C@H]2O)O[C@H]2C[C@H]3[C@@H]4CC[C@@H]5C[C@@H](O[C@@H]6O[C@H](CO)[C@H](O)[C@H](O)[C@H]6O[C@@H]6O[C@H](CO)[C@@H](O)[C@H](O)[C@H]6O)CC[C@]5(C)[C@H]4CC[C@]3(C)[C@H]2[C@@H]1C [BI]
extending blood coagulation time [7]: significant activity | activity against human platelet aggregation [8]: significant activity

CC1=C(CC[C@H](C)CO[C@@H]2O[C@H](CO)[C@@H](O)[C@H](O)[C@H]2O)O[C@H]2C[C@H]3[C@@H]4CC[C@@H]5C[C@@H](O[C@@H]6O[C@H](CO)[C@H](O)[C@H](O)[C@H]6O[C@@H]6O[C@H](CO)[C@@H](O)[C@H](O)[C@H]6O)CC[C@]5(C)[C@H]4CC[C@]3(C)[C@@H]12 [BIII]
extending blood coagulation time [7]: significant activity | activity against human platelet aggregation [8]: significant activity

CC(=O)Oc1ccccc1C(=O)O [ASP, Aspirin]
Thrombus weight (mg) Dry weight [9]: 26.7 ± 6.4 mg | Thrombus weight (mg) Wet weight [9]: 79.7 ± 19.0 mg | Bleeding volume [1]: 13.5 ± 13.8 µL | Hemostatic time (s) ([1]; cut-off 600 s): 277.4 ± 188.5^★★★ s | Hemostatic time ([1]; cut-off 600 s, listed as aspirin): 277.4 ± 188.5 s | Coagulation time (s) APTT [10]: 17.50 ± 2.37 s | Coagulation time (s) PT [10]: 16.49 ± 2.08 s | Coagulation time (s) TT [10]: 28.98 ± 0.97 s | PLT maximum aggregation rate [11]: 49.1 ± 4.8 | Lethal time (s) [12]: 244.6 ± 195.3 ^★ s | Thrombus dry weight [4]: 25.5 ± 7.37 mg | Thrombus wet weight [4]: 79.74 ± 18.95 mg | Maximum aggregation rate (%) [5]: 40.8 ± 7.6 %
